ChEMBL document CHEMBL5724914, “Linking interpersonal differences in gut microbiota composition and drug biotransformation activity” (2024)

experiment: (§1) The drug is tested on Z-030 corresponding to mouse gut metagenome with ENA study accession number: PRJEB37062 and ENA sample accession number: ERS12561829 for biotransformation under anaerobic condition. The drug concentrations were measured over 9 timepoints collected between 0 and 24 hours of incubation by liquid-chromatography-coupled mass spectrometry (LC–MS); conditions: 2 µM
Further: call rule not given here.

SMILES | Bacterial Biotransformation
CCOC(=O)C1=C[C@]2(CC)CCCN3CCc4c(n1c1ccccc41)[C@@H]32 [VINPOCETINE] | Compound NOT metabolized
C[C@@H](c1ncncc1F)[C@](O)(Cn1cncn1)c1ccc(F)cc1F [VORICONAZOLE] | Compound NOT metabolized
CCN(C(C)=O)c1cccc(-c2ccnc3c(C#N)cnn23)c1 [ZALEPLON] | Compound NOT metabolized

experiment: as §1, with “Z-026” for “Z-030”, “to” for “to mouse gut”, “ERS12561825” for “ERS12561829”; conditions: 2 µM

SMILES | Bacterial Biotransformation
CCOC(=O)C1=C[C@]2(CC)CCCN3CCc4c(n1c1ccccc41)[C@@H]32 [VINPOCETINE] | Compound NOT metabolized
C[C@@H](c1ncncc1F)[C@](O)(Cn1cncn1)c1ccc(F)cc1F [VORICONAZOLE] | Compound NOT metabolized
CCN(C(C)=O)c1cccc(-c2ccnc3c(C#N)cnn23)c1 [ZALEPLON] | Compound NOT metabolized

experiment: as §1, with “Z-020” for “Z-030”, “rabbit” for “mouse”, “ERS12561819” for “ERS12561829”; conditions: 2 µM

SMILES | Bacterial Biotransformation
CCOC(=O)C1=C[C@]2(CC)CCCN3CCc4c(n1c1ccccc41)[C@@H]32 [VINPOCETINE] | Compound metabolized
C[C@@H](c1ncncc1F)[C@](O)(Cn1cncn1)c1ccc(F)cc1F [VORICONAZOLE] | Compound metabolized
CCN(C(C)=O)c1cccc(-c2ccnc3c(C#N)cnn23)c1 [ZALEPLON] | Compound metabolized

experiment: as §1, with “Z-008” for “Z-030”, “to” for “to mouse gut”, “ERS12561808” for “ERS12561829”; conditions: 2 µM

SMILES | Bacterial Biotransformation
CCOC(=O)C1=C[C@]2(CC)CCCN3CCc4c(n1c1ccccc41)[C@@H]32 [VINPOCETINE] | Compound NOT metabolized
C[C@@H](c1ncncc1F)[C@](O)(Cn1cncn1)c1ccc(F)cc1F [VORICONAZOLE] | Compound NOT metabolized
CCN(C(C)=O)c1cccc(-c2ccnc3c(C#N)cnn23)c1 [ZALEPLON] | Compound NOT metabolized

experiment: as §1, with “Z-003” for “Z-030”, “pig” for “mouse”, “ERS12561803” for “ERS12561829”; conditions: 2 µM

SMILES | Bacterial Biotransformation
CCOC(=O)C1=C[C@]2(CC)CCCN3CCc4c(n1c1ccccc41)[C@@H]32 [VINPOCETINE] | Compound metabolized
C[C@@H](c1ncncc1F)[C@](O)(Cn1cncn1)c1ccc(F)cc1F [VORICONAZOLE] | Compound metabolized
CCN(C(C)=O)c1cccc(-c2ccnc3c(C#N)cnn23)c1 [ZALEPLON] | Compound metabolized

experiment: as §1, with “WLS-310” for “Z-030”, “human” for “mouse”, “ERS12561785” for “ERS12561829”; conditions: 2 µM

SMILES | Bacterial Biotransformation
CCOC(=O)C1=C[C@]2(CC)CCCN3CCc4c(n1c1ccccc41)[C@@H]32 [VINPOCETINE] | Compound metabolized
C[C@@H](c1ncncc1F)[C@](O)(Cn1cncn1)c1ccc(F)cc1F [VORICONAZOLE] | Compound metabolized
CCN(C(C)=O)c1cccc(-c2ccnc3c(C#N)cnn23)c1 [ZALEPLON] | Compound metabolized

experiment: as §1, with “WLS-220” for “Z-030”, “human” for “mouse”, “ERS12561769” for “ERS12561829”; conditions: 2 µM

SMILES | Bacterial Biotransformation
CCOC(=O)C1=C[C@]2(CC)CCCN3CCc4c(n1c1ccccc41)[C@@H]32 [VINPOCETINE] | Compound NOT metabolized
C[C@@H](c1ncncc1F)[C@](O)(Cn1cncn1)c1ccc(F)cc1F [VORICONAZOLE] | Compound metabolized
CCN(C(C)=O)c1cccc(-c2ccnc3c(C#N)cnn23)c1 [ZALEPLON] | Compound metabolized

experiment: as §1, with “WLS-077” for “Z-030”, “human” for “mouse”, “ERS12561750” for “ERS12561829”; conditions: 2 µM

SMILES | Bacterial Biotransformation
CCOC(=O)C1=C[C@]2(CC)CCCN3CCc4c(n1c1ccccc41)[C@@H]32 [VINPOCETINE] | Compound metabolized
C[C@@H](c1ncncc1F)[C@](O)(Cn1cncn1)c1ccc(F)cc1F [VORICONAZOLE] | Compound metabolized
CCN(C(C)=O)c1cccc(-c2ccnc3c(C#N)cnn23)c1 [ZALEPLON] | Compound metabolized

experiment: as §1, with “WLS-007” for “Z-030”, “human” for “mouse”, “ERS12561742” for “ERS12561829”; conditions: 2 µM

SMILES | Bacterial Biotransformation
CCOC(=O)C1=C[C@]2(CC)CCCN3CCc4c(n1c1ccccc41)[C@@H]32 [VINPOCETINE] | Compound NOT metabolized
C[C@@H](c1ncncc1F)[C@](O)(Cn1cncn1)c1ccc(F)cc1F [VORICONAZOLE] | Compound metabolized
CCN(C(C)=O)c1cccc(-c2ccnc3c(C#N)cnn23)c1 [ZALEPLON] | Compound metabolized

conditions: human gut metagenome, 24 h, 2 µM

SMILES | Bacterial Biotransformation
CCOC(=O)C1=C[C@]2(CC)CCCN3CCc4c(n1c1ccccc41)[C@@H]32 [VINPOCETINE] | Compound metabolized
C[C@@H](c1ncncc1F)[C@](O)(Cn1cncn1)c1ccc(F)cc1F [VORICONAZOLE] | Compound metabolized
CCN(C(C)=O)c1cccc(-c2ccnc3c(C#N)cnn23)c1 [ZALEPLON] | Compound metabolized

conditions: human gut metagenome, 24 h, 2 µM; remark: another data set of the same source

SMILES | Bacterial Biotransformation
CCOC(=O)C1=C[C@]2(CC)CCCN3CCc4c(n1c1ccccc41)[C@@H]32 [VINPOCETINE] | Compound metabolized
C[C@@H](c1ncncc1F)[C@](O)(Cn1cncn1)c1ccc(F)cc1F [VORICONAZOLE] | Compound metabolized
CCN(C(C)=O)c1cccc(-c2ccnc3c(C#N)cnn23)c1 [ZALEPLON] | Compound metabolized

conditions: human gut metagenome, 24 h, 2 µM; remark: another data set of the same source

SMILES | Bacterial Biotransformation
CCOC(=O)C1=C[C@]2(CC)CCCN3CCc4c(n1c1ccccc41)[C@@H]32 [VINPOCETINE] | Compound metabolized
C[C@@H](c1ncncc1F)[C@](O)(Cn1cncn1)c1ccc(F)cc1F [VORICONAZOLE] | Compound metabolized
CCN(C(C)=O)c1cccc(-c2ccnc3c(C#N)cnn23)c1 [ZALEPLON] | Compound metabolized

conditions: human gut metagenome, 24 h, 2 µM; remark: another data set of the same source

SMILES | Bacterial Biotransformation
CCOC(=O)C1=C[C@]2(CC)CCCN3CCc4c(n1c1ccccc41)[C@@H]32 [VINPOCETINE] | Compound metabolized
C[C@@H](c1ncncc1F)[C@](O)(Cn1cncn1)c1ccc(F)cc1F [VORICONAZOLE] | Compound metabolized
CCN(C(C)=O)c1cccc(-c2ccnc3c(C#N)cnn23)c1 [ZALEPLON] | Compound metabolized

conditions: human gut metagenome, 24 h, 2 µM; remark: another data set of the same source

SMILES | Bacterial Biotransformation
CCOC(=O)C1=C[C@]2(CC)CCCN3CCc4c(n1c1ccccc41)[C@@H]32 [VINPOCETINE] | Compound metabolized
C[C@@H](c1ncncc1F)[C@](O)(Cn1cncn1)c1ccc(F)cc1F [VORICONAZOLE] | Compound metabolized
CCN(C(C)=O)c1cccc(-c2ccnc3c(C#N)cnn23)c1 [ZALEPLON] | Compound metabolized

conditions: human gut metagenome, 24 h, 2 µM; remark: another data set of the same source

SMILES | Bacterial Biotransformation
CCOC(=O)C1=C[C@]2(CC)CCCN3CCc4c(n1c1ccccc41)[C@@H]32 [VINPOCETINE] | Compound metabolized
C[C@@H](c1ncncc1F)[C@](O)(Cn1cncn1)c1ccc(F)cc1F [VORICONAZOLE] | Compound metabolized
CCN(C(C)=O)c1cccc(-c2ccnc3c(C#N)cnn23)c1 [ZALEPLON] | Compound metabolized

conditions: human gut metagenome, 24 h, 2 µM; remark: another data set of the same source

SMILES | Bacterial Biotransformation
CCOC(=O)C1=C[C@]2(CC)CCCN3CCc4c(n1c1ccccc41)[C@@H]32 [VINPOCETINE] | Compound metabolized
C[C@@H](c1ncncc1F)[C@](O)(Cn1cncn1)c1ccc(F)cc1F [VORICONAZOLE] | Compound metabolized
CCN(C(C)=O)c1cccc(-c2ccnc3c(C#N)cnn23)c1 [ZALEPLON] | Compound metabolized

conditions: human gut metagenome, 24 h, 2 µM; remark: another data set of the same source

SMILES | Bacterial Biotransformation
CCOC(=O)C1=C[C@]2(CC)CCCN3CCc4c(n1c1ccccc41)[C@@H]32 [VINPOCETINE] | Compound metabolized
C[C@@H](c1ncncc1F)[C@](O)(Cn1cncn1)c1ccc(F)cc1F [VORICONAZOLE] | Compound metabolized
CCN(C(C)=O)c1cccc(-c2ccnc3c(C#N)cnn23)c1 [ZALEPLON] | Compound metabolized

conditions: human gut metagenome, 24 h, 2 µM; remark: another data set of the same source

SMILES | Bacterial Biotransformation
CCOC(=O)C1=C[C@]2(CC)CCCN3CCc4c(n1c1ccccc41)[C@@H]32 [VINPOCETINE] | Compound metabolized
C[C@@H](c1ncncc1F)[C@](O)(Cn1cncn1)c1ccc(F)cc1F [VORICONAZOLE] | Compound metabolized
CCN(C(C)=O)c1cccc(-c2ccnc3c(C#N)cnn23)c1 [ZALEPLON] | Compound metabolized

conditions: human gut metagenome, 24 h, 2 µM; remark: another data set of the same source

SMILES | Bacterial Biotransformation
CCOC(=O)C1=C[C@]2(CC)CCCN3CCc4c(n1c1ccccc41)[C@@H]32 [VINPOCETINE] | Compound metabolized
C[C@@H](c1ncncc1F)[C@](O)(Cn1cncn1)c1ccc(F)cc1F [VORICONAZOLE] | Compound metabolized
CCN(C(C)=O)c1cccc(-c2ccnc3c(C#N)cnn23)c1 [ZALEPLON] | Compound metabolized

conditions: human gut metagenome, 24 h, 2 µM; remark: another data set of the same source

SMILES | Bacterial Biotransformation
CCOC(=O)C1=C[C@]2(CC)CCCN3CCc4c(n1c1ccccc41)[C@@H]32 [VINPOCETINE] | Compound metabolized
C[C@@H](c1ncncc1F)[C@](O)(Cn1cncn1)c1ccc(F)cc1F [VORICONAZOLE] | Compound metabolized
CCN(C(C)=O)c1cccc(-c2ccnc3c(C#N)cnn23)c1 [ZALEPLON] | Compound metabolized
